Reference: paper PMC5785467 (Nature, 2018)

Target: T1, beetle ICMT (Tribolium castaneum, UniProt D6WJ77)
T1 sequence (D6WJ77 1-281): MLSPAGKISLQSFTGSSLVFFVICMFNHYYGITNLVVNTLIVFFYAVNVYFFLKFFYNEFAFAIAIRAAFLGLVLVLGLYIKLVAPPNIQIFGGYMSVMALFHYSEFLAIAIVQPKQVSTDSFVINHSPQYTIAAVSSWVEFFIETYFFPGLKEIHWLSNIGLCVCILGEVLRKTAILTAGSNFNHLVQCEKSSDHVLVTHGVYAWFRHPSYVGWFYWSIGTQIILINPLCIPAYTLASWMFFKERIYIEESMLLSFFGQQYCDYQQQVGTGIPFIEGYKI
Test: X-ray crystal structure, […] Å
Format: binding
Conditions: complex with monobody MB-15, lipidic cubic phase; cofactor site

## Nc1ncnc2c1ncn2[C@@H]1O[C@H](CSCC[C@H](N)C(=O)O)[C@@H](O)[C@H]1O [AdoHcy]
  X-ray crystal structure, 2.3 Å: AdoHcy is encapsulated within a pocket that is formed by the M6–M7 connector
